The source of these data is patent US20260274832A1, “COMPOUNDS AND THEIR USE IN TREATING CANCER” (ASTRAZENECA AB, priority 2023, published 2026).

Test [1] concerns the target T1, AR (AR-full length) in LNCaP cells (Homo sapiens, UniProt P10275, T878A).
T1 construct: the prostate cancer cell line LNCaP (expressing AR-full length); endogenous in cells; host or cells: LNCaP
Nature of the test: LNCaP Androgen Receptor Imaging Assay (immunofluorescence of endogenous nuclear AR). The following applies: 24 h incubation; for DC50: concentration giving 50% of maximum degradation of AR per curve fit, single experiment or average of two or more; for LNCaP AR Degradation Dmax / Dmax: maximum degradation observed, normalized as % of positive control (prior art AR PROTAC at 3 μM); for Dmax: LNCaP. The test is classed as cell-based. On the procedure:
This cell-based imaging assay uses immuno-fluorescence to measure endogenous nuclear AR staining in the prostate cancer cell line LNCaP (expressing AR-full length). The purpose of the assay is to identify compounds that regulate AR protein level according to the protocol laid out in the steps below.
(§1) All work was performed in a sterile tissue culture hood up to the point of cell fixation. LNCaP cells were cultured at 6-8×10^6 per T175 flask and split every 3-4 days. Medium: RPMI (R7638, VWR Sigma) containing 10% FCS and 1% glutamine. Cells were plated in black wall transparent bottom plates at a density of 12,000 cells (Cedex™ Cell counter, Beckmann & Coulter), 40 μL per well, using a Multidrop (ThermoFisher).
(§2) Cells were dosed with test compound diluted in DMSO using an Echo 555/655™ (Labcyte) and the final concentration of DMSO in the well was 0.3%. A neutral control (DMSO) and a positive AR degrader control at 3 μM (a prior art AR PROTAC) were included. The Echo uses acoustic technology to perform direct microplate-to-microplate transfers of DMSO compound solutions to assay plates. The system can be programmed to transfer volumes as low as 2.5 nL in multiple increments between microplates and in so doing generates a serial dilution of compound in the assay plate which is then back-filled to normalise the DMSO concentration across the dilution range. Compounds were dispensed as a 12 point dose response with indicated concentrations. The plates were incubated at 37° C./5% CO2 for 24 h and then fixed and stained as below. 40 μL of 8% paraformaldehyde solution (v/v) in phosphate buffered saline (PBS) was added on top of the media already in the well using a Multidrop to fix plates giving a final concentration of 4% PFA (v/v) for 20-30 minutes (keep in fume hood to minimise PFA exposure). After 20-30 mins, the plates were washed with 3×PBS using a BioTek washer in a fume hood. A shake out of remaining volume in the well was performed to ensure best removal of remaining PBS. At this plates could be stored in PBS after washing for at least 3 days at 4° C., if so, PBS was removed by the BioTek before continuing with the next step.
(§3) The cells were incubated with a Mouse monoclonal Anti-AR antibody AR441 (DAKO M3562) (1:1000), diluted in modified blocking buffer (PBS+1% BSA+0.1% TritonX); 15 μL/well for 2 h at RT. The plates were then washed with 3×PBS using a BioTek washer. A shake out of remaining volume in the well was performed to ensure best removal of remaining PBS. Cells were then incubated with Goat anti-mouse secondary antibody 488 (Invitrogen A11001) (1:500) and nuclear stain, DRAQ5 (Abcam Ab108410) (1:2000) diluted in modified blocking buffer for 45 mins at room temperature 15 μL/well. Plates are then washed with 3×PBS using a BioTek washer, without final aspiration, and sealed with black plate seals. Plates could be stored after staining for three days at 4° C. before read if required.
(§4) Plates are read using a Cellomics Cellinsight to measure the Androgen Receptor level in each well. The data is exported into Genedata to perform curve fitting analysis. All data are normalized as % of positive control and the BellFit method automatically determines the correct fit method based on the presence of hook effect, choosing the BellFit when there is a hook and HillFit when there is no hook. Down-regulation of AR is expressed as a DC50 value and determined by calculation of the concentration of compound that is required to give 50% of maximum degradation of AR as per the curve fit for that compound. The maximum degradation observed for each compound is expressed as Dmax. The AR degradation data for compounds is shown in the table below and may be a result from a single experiment or an average of two or more experiments.

Test [2] addresses T2, AR (L702H) in LNCaP cells (Homo sapiens, UniProt P10275, L702H/T878A).
T2 construct: engineered to introduce the mutation L702H into the AR gene using CRISPR/Cas9; endogenous in cells; host or cells: LNCaP cells edited by CRISPR/Cas9 at the AR gene
Nature of the test: LNCaP Androgen Receptor L702H Imaging Assay (LNCaP cells engineered by CRISPR/Cas9). The test is classed as cell-based. The following applies: LNCaP cells with AR L702H mutation, 24 h incubation; for DC50: concentration giving 50% of maximum degradation of AR (L702H) per curve fit; for LNCaP AR (L702H) Degradation Dmax / Dmax: maximum degradation observed, normalized as % of positive control; for Dmax: LNCaP. On the procedure: as §1, §2, §3, §4
At this stage, anti-androgen therapy is largely ineffective due to AR amplification, overexpression or point mutation. One of the point mutations observed in patient populations is L702H in the AR Ligand Binding Domain. LNCAP cells have been engineered to introduce the mutation L702H into the AR gene using CRISPR/Cas9. The previously described imaging-based AR assay will monitor nuclear AR (L702H) levels in these cells to identify compounds that regulate AR (L702H). […]

Structures are written as SMILES.

T2 sequence (P10275 whole entry L702H/T878A): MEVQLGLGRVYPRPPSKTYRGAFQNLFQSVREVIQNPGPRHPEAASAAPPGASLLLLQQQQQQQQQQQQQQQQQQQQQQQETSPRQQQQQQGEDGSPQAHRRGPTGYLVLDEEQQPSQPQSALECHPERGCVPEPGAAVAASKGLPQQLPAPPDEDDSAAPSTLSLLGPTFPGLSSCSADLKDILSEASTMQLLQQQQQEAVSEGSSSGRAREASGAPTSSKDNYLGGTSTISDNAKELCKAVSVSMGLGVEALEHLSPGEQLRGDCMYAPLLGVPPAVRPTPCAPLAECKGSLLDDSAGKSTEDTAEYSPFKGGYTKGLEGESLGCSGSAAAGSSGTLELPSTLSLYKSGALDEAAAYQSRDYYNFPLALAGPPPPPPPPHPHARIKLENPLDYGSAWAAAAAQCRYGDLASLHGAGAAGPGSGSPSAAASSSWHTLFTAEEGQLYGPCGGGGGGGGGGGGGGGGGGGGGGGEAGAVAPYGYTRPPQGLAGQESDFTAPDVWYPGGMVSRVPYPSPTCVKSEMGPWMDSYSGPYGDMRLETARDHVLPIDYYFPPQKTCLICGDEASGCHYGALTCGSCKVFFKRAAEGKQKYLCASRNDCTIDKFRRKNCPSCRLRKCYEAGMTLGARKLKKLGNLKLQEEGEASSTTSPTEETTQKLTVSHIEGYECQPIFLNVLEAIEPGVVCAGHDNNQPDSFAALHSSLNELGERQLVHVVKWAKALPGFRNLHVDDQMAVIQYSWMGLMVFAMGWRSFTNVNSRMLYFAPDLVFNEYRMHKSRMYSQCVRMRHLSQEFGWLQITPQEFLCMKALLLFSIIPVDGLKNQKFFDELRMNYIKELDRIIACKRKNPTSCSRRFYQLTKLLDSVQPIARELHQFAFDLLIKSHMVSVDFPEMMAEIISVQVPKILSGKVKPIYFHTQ
T2 sequence (Q96SW2 whole entry partner): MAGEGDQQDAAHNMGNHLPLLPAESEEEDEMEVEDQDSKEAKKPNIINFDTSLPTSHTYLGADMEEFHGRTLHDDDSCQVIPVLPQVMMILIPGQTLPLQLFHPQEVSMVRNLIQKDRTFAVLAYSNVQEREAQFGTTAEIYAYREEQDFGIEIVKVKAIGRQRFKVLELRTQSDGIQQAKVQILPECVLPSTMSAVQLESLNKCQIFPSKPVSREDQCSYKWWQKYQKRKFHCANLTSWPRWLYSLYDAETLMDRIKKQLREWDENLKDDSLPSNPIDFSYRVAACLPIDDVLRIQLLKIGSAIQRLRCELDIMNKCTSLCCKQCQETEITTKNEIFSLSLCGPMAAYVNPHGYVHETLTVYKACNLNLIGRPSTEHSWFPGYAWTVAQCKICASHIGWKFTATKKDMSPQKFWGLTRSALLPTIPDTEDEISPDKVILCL
T1 sequence (P10275 whole entry T878A): as the sequence (P10275 whole entry L702H/T878A) above, with H702L counted along it
T1 sequence (Q96SW2 whole entry partner): as the sequence (Q96SW2 whole entry partner) above

Take `Cc1ccc(N2CCC(c3ccc(OCCCCN4CCN(c5ccc6c(c5)CN(C5CCC(=O)NC5=O)C6=O)CC4)cc3)C2)c2[nH]cc(C#N)c12` (single isomer, unassigned) [Example 151, 7-{(3R*)-3-[4-(4-{4-[2-(2,6-Dioxopiperidin-3-yl)-1-oxo-2,3-dihydro-1H-isoindol-5-yl]piperazin-1-yl}butoxy)phenyl]pyrrolidin-1-yl}-4-methyl-1H-indole-3-carbonitrile]: in test [1], the DC50 (commonly the midpoint of the concentration-degradation curve) came out at 18 nM and the “LNCaP AR Degradation Dmax” value turned out to be 67%. Also, in test [2], half-maximal degradation (DC50) was put at 497 nM and the “LNCaP AR (L702H) Degradation Dmax” value is on record as 42%.

As to `Cc1ccc(C2CCCN(c3ccc(OCCCCN4CCN(c5ccc6c(c5)CN(C5CCC(=O)NC5=O)C6=O)CC4)cc3)C2)c2[nH]cc(C#N)c12` (single isomer, unassigned) [Example 78, 7-{(3R*)-1-[4-(4-{4-[2-(2,6-dioxopiperidin-3-yl)-1-oxo-2,3-dihydro-1H-isoindol-5-yl]piperazin-1-yl}butoxy)phenyl]piperidin-3-yl}-4-methyl-1H-indole-3-carbonitrile], in test [1], the DC50 came out at 1370 nM and the “LNCaP AR Degradation Dmax” value is recorded as 70%. In addition, in test [2], the DC50 was 3100 nM and the “LNCaP AR (L702H) Degradation Dmax” value came to 100%.

On to `COc1nc(N2CCN(CC3CCN(c4ccc(C5CCN(c6ccc(Cl)c7c(C#N)c[nH]c67)CC5)nc4)CC3)CC2)cc2c1C(=O)N(C1CCC(=O)NC1=O)C2` (stereo not shown) [Example 61, 4-Chloro-7-(4-{5-[4-({4-[2-(2,6-dioxopiperidin-3-yl)-4-methoxy-3-oxo-2,3-dihydro-1H-pyrrolo[3,4-c]pyridin-6-yl]piperazin-1-yl}methyl)piperidin-1-yl]pyridin-2-yl}piperidin-1-yl)-1H-indole-3-carbonitrile], for which, in test [1], it took 6 nM to reach half-maximal degradation (DC50) and the Dmax (usually the greatest extent of degradation seen) came to 94%. In addition, in test [2], the 50% degradation concentration (DC50) amounted to 25 nM and the Dmax is 65%.

`N#Cc1c[nH]c2c(N3CCCC(c4ccc(N5CCC(CN6CCC(n7ccc8c(N9CCC(=O)NC9=O)cccc87)CC6)CC5)nn4)C3)ccc(Cl)c12` (single isomer, unassigned) [Example 121, 4-Chloro-7-[(3R*)-3-{6-[4-({4-[4-(2,4-dioxo-1,3-diazinan-1-yl)-1H-indol-1-yl]piperidin-1-yl}methyl)piperidin-1-yl]pyridazin-3-yl}piperidin-1-yl]-1H-indole-3-carbonitrile]: in test [1], the DC50 was 18 nM and the Dmax amounted to 81%. In test [2], the DC50 came to 3100 nM and the “LNCaP AR (L702H) Degradation Dmax” value came out at 98%.

Take `COc1nc(N2CCN(CC3CCN(c4ccc([C@@H]5CCCN(c6ccc(Cl)c7c(C#N)c[nH]c67)C5)cc4)CC3)CC2)cc2c1C(=O)N(C1CCC(=O)NC1=O)C2` (single isomer, unassigned) [Example 40, 4-Chloro-7-[(3S)-3-(4-{4-[(4-{2-[(3S*)-2,6-dioxopiperidin-3-yl]-4-methoxy-3-oxo-2,3-dihydro-1H-pyrrolo[3,4-c]pyridin-6-yl}piperazin-1-yl)methyl]piperidin-1-yl}phenyl)piperidin-1-yl]-1H-indole-3-carbonitrile]: in test [1], it took 7 nM to reach half-maximal degradation (DC50) and the “LNCaP AR Degradation Dmax” value came to 105%. Further, in test [2], the 50% degradation concentration (DC50) was determined as 12 nM and the “LNCaP AR (L702H) Degradation Dmax” value worked out at 106%.

As for `N#Cc1c[nH]c2c(N3CCC(NC(=O)c4ncc(N5CCC(CN6CCC(n7ccc8c(N9CCC(=O)NC9=O)cccc87)CC6)CC5)cn4)CC3)ccc(Cl)c12` [Example 177, N-[1-(4-Chloro-3-cyano-1H-indol-7-yl)piperidin-4-yl]-5-[4-({4-[4-(2,4-dioxo-1,3-diazinan-1-yl)-1H-indol-1-yl]piperidin-1-yl}methyl)piperidin-1-yl]pyrimidine-2-carboxamide], in test [1], the 50% degradation concentration (DC50) amounted to 2 nM and the Dmax is 107%. In addition, in test [2], the DC50 was determined as 15 nM and the Dmax turned out to be 40%.

Take `N#Cc1c[nH]c2c(N3CCCC(c4ccc(N5CCC(CN6CCC(n7ccc8c(N9CCC(=O)NC9=O)cccc87)CC6)CC5)nn4)C3)ccc(Cl)c12` (single isomer, unassigned) [Example 122, 4-Chloro-7-[(3S*)-3-{6-[4-({4-[4-(2,4-dioxo-1,3-diazinan-1-yl)-1H-indol-1-yl]piperidin-1-yl}methyl)piperidin-1-yl]pyridazin-3-yl}piperidin-1-yl]-1H-indole-3-carbonitrile]: in test [1], the DC50 turned out to be 93 nM and the “LNCaP AR Degradation Dmax” value was 85%. In addition, in test [2], the DC50 is 67 nM and the “LNCaP AR (L702H) Degradation Dmax” value was 75%.

Turning to `Cn1c(=O)n(C2CCC(=O)NC2=O)c2cccc(CN3CCN(CC4CCN(c5ccc(C6CCN(c7ccc(F)c8c(C#N)c[nH]c78)CC6)cc5)CC4)CC3)c21` (stereo not shown) [Example 71, 7-[4-(4-{4-[(4-{[1-(2,6-Dioxopiperidin-3-yl)-3-methyl-2-oxo-2,3-dihydro-1H-benzimidazol-4-yl]methyl}piperazin-1-yl)methyl]piperidin-1-yl}phenyl)piperidin-1-yl]-4-fluoro-1H-indole-3-carbonitrile], in test [1], it took 7 nM to reach half-maximal degradation (DC50) and the Dmax is 84%. Besides, in test [2], it took 7 nM to reach half-maximal degradation (DC50) and the Dmax stood at 94%.

Take `Cn1c(=O)n(C2CCC(=O)NC2=O)c2cccc(CN3CCN(CC4CCN(c5ccc([C@@H]6CCCN(c7ccc(Cl)c8c(C#N)c[nH]c78)C6)cc5)CC4)CC3)c21` (stereo partly drawn) [Example 73, 4-Chloro-7-[(3S)-3-(4-{4-[(4-{[1-(2,6-dioxopiperidin-3-yl)-3-methyl-2-oxo-2,3-dihydro-1H-benzimidazol-4-yl]methyl}piperazin-1-yl)methyl]piperidin-1-yl}phenyl)piperidin-1-yl]-1H-indole-3-carbonitrile]: in test [1], half-maximal degradation (DC50) was put at 7 nM and the Dmax came out at 93%. For the same compound, in test [2], the 50% degradation concentration (DC50) was 13 nM and the Dmax was found to be 90%.

Turning to `N#Cc1c[nH]c2c(C3CCCN(c4ccc(N5CCC(CN6CCN(c7ccc8c(c7)CN(C7CCC(=O)NC7=O)C8=O)CC6)CC5)cc4)C3)ccc(Cl)c12` (single isomer, unassigned) [Example 94, 4-Chloro-7-[(3S*)-1-{4-[4-({4-[2-(2,6-dioxopiperidin-3-yl)-1-oxo-2,3-dihydro-1H-isoindol-5-yl]piperazin-1-yl}methyl)piperidin-1-yl]phenyl}piperidin-3-yl]-1H-indole-3-carbonitrile], the DC50 in test [1] was more than 3000 nM.
